Measurements taken from patent US9409880B2, “Modulators of TLR3/dsRNA complex and uses thereof” (The Regents of the University of Colorado, a body corporate, priority 2011, dated 2016).

Columns and labels:
TLR3 [1] = biological target: T1, TLR3 (Mus musculus, UniProt Q99MB1); experiment: In vitro TLR3 inhibition assay: Poly IC-induced NO production in RAW 264.7 cells; assay type: cell-based
T1 construct: endogenous in cells; host or cells: RAW 264.7
T1 sequence (Q99MB1 26-905): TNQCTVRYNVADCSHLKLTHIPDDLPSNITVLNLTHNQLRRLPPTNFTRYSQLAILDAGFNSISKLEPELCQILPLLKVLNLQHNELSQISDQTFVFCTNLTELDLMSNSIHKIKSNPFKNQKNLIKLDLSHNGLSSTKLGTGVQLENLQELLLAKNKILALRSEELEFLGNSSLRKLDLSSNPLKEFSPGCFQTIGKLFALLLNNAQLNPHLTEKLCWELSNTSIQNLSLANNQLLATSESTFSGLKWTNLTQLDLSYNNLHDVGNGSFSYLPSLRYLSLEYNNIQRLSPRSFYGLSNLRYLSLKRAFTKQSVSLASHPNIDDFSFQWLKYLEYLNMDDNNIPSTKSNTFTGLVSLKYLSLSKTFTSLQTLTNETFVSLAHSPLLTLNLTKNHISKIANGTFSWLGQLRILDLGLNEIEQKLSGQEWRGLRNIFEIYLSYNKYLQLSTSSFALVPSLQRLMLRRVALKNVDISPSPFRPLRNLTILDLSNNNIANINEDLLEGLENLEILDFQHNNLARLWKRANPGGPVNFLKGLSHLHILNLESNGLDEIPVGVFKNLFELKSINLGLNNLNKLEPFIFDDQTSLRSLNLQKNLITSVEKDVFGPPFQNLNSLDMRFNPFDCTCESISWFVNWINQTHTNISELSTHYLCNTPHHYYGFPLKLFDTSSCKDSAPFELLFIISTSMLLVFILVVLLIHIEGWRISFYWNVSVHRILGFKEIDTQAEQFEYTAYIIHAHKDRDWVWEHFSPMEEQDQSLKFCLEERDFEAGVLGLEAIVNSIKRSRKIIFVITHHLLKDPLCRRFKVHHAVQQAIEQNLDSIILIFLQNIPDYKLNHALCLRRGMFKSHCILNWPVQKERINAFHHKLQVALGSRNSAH
Text: The initial hits (Figure A) were first evaluated using the present inventors' previously established high-throughput cell assay of TLR3 activation. See, for example, ACS Med. Chem. Lett. 2010, 1, 194 and Bioorg. Med. Chem. Lett., 2010, 20, 5411. Poly IC (Polyriboinosinic:polyribocytidylic acid) has been reported to selectively activate TLR3 signaling, resulting in the activation of nitric oxide synthase and the production nitric oxide (NO) in RAW 264.7 macrophage cells. The NO level was monitored as an indicator of Poly IC-induced TLR3 activation to evaluate the drug's inhibitory activity.
RAW 264.7 (Mouse leukaemic monocyte macrophage cell line) cells were grown in RPMI 1640 medium, supplemented with 10% FBS, penicillin (100 U/mL) and streptomycin ([…]). RAW cells were then planted in 96-well plates at 100,000 cells per well and grown for 24 h in the media descried previously at 37° C. in a 5% CO2 humidified incubator. After 24 h, non-adherent cells and media were removed and replaced with fresh RPMI 1640 medium (only RPMI). The adherent macrophages were treated with high molecular weight polyinosine-polycytidylic acid (Poly IC) (10 μg/mL) (Invivogen), an agonist of TLR3, and then added different concentrates of potential inhibitor. Two rows were only treated with Poly IC as an control. Plates were then incubated for an additional 24 h. Following incubation 100 μL of media was removed and added to flat black 96-well microfluor plates (Thermo Scientific, MA, USA). To each well, 10 μL of 2,3-diaminonaphthalene (0.05 mg/mL in 0.62 M aqueous HCl solution) was added and incubated for 15 min in the dark. The reaction was quenched by addition of 5 μL of a 3 M aqueous NaOH solution and the plate was read on Beckman Coulter DTX880 reader (Beckman Coulter, Calif., USA) with excitation at 365 nm and emission at 450 nm. The nitrite (a stable metabolite of nitric oxide) concentration was determined from a nitrite standard curve. The inhibition rate (%) of NO release was determined using the following formula: Inhibition (%)=[Poly IC(OD450)−Compounds (OD450)]/[Poly IC(OD450)−Control (OD450)]×100. The IC50 values for both inhibition and cytotoxicity were determined graphically using software Origin v7.5.

TLR3 [2] = biological target: T2, TLR3 (Homo sapiens, UniProt O15455); experiment: Fluorescence anisotropy assay, competition with Rhodamine labeled Poly IC; assay type: binding
T2 construct: purchased R &D
T2 sequence (O15455 24-904): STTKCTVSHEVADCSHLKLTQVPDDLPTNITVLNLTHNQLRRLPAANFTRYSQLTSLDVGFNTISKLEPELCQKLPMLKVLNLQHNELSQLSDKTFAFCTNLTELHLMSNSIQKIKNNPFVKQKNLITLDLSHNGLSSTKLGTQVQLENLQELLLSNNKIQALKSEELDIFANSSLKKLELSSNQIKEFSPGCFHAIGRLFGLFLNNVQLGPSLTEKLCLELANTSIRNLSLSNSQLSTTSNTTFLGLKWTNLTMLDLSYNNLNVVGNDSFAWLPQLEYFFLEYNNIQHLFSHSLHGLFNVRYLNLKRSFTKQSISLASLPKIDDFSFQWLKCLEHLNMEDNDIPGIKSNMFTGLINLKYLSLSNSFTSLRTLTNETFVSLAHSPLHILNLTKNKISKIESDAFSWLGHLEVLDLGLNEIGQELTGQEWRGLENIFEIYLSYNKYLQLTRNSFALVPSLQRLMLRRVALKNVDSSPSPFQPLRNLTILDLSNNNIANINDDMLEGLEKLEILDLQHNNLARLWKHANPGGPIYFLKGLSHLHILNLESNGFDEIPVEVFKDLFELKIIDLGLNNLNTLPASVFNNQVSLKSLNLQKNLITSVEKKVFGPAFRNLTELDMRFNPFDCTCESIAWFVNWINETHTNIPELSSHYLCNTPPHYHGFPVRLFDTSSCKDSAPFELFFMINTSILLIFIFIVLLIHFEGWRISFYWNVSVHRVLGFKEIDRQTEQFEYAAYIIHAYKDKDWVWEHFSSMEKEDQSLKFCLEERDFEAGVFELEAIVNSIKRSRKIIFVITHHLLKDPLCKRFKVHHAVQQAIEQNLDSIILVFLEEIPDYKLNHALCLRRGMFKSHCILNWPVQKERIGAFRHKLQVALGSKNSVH
Method: The anisotropy of Rhodamine labeled Poly IC increased from approximately 0.116 to 0.171 upon addition of TLR3 (excitation=546 nm; emission=576 nm).
In 500 μL Tris buffer (pH=7.2) add 5 μL (1 μg/mL) Rhodamine labeled Poly IC (Invivogen), test the anisotropy at excitation of 546 nm and emission of 576 nm (Horiba Fluorolog 3). An addition 3 μL (20 μM) of TLR3 (R &D) was added in the buffer, then test the anisotropy again. Following, 4a was added in the buffer from 0 to 68 μM, and the fluorescence anisotropy was tested when the concentration was changed.

[3] = whole cell inhibitory activity, Poly IC-induced NO, RAW 264.7, average ± SD, at least three independent tests
[4] = whole cell inhibitory activity, second part of Table 1 (R5/R6 series)
[5] = Poly IC-induced TLR3 activation, cell assay

Structure (SMILES) | IC50 (TLR3 [1]; [3]) [µM] | TLR3 binding competition with dsRNA (TLR3 [2]) | IC50 (TLR3 [1]; [4]) [µM] | IC50 (TLR3 [1]; [5]) [µM]
O=C(N[C@H](Cc1ccccc1)C(=O)O)c1cc2ccccc2s1 [Compound 1a, (R)-2-(benzo[b]thiophene-2-carboxamido)-3-phenylpropanoic acid] | > 155 | does not show any significant binding to TLR3 |  | 
O=C(O)[C@@H](Cc1ccc(O)cc1)NS(=O)(=O)c1cccc(F)c1 [Compound 18a, (R)-2-(3-fluorophenylsulfonamido)-3-(4-hydroxyphenyl)propanoic acid] |  |  | > 100 | 
O=C(O)[C@H](Cc1ccc(O)cc1)NS(=O)(=O)c1cccc(F)c1 [Compound 18b, (S)-2-(3-fluorophenylsulfonamido)-3-(4-hydroxyphenyl)propanoic acid] |  |  | > 100 | 
O=C(O)[C@@H](Cc1ccc(O)cc1)NS(=O)(=O)c1ccc(F)cc1 [Compound 19a, (R)-2-(4-fluorophenylsulfonamido)-3-(4-hydroxyphenyl)propanoic acid] |  |  | > 100 | 
O=C(O)[C@H](Cc1ccc(O)cc1)NS(=O)(=O)c1ccc(F)cc1 [Compound 19b, (S)-2-(4-fluorophenylsulfonamido)-3-(4-hydroxyphenyl)propanoic acid] |  |  | > 100 | 
O=C(O)[C@@H](Cc1ccccc1)NS(=O)(=O)c1ccccc1F [Compound T5260630, reference compound] | 145 ± 4 |  |  | 145 ± 3.7
O=C(N[C@H](Cc1ccccc1)C(=O)O)c1cc2c(s1)CCCCC2 [Compound T5626448, reference compound] | 154 ± 6 |  |  | 154 ± 5.9
